# From patent publication US9796742B2, “Kinase inhibitors” (Respivert Limited, priority 2012, dated 2017)
# Columns and labels:
# [1] = test system: TNBS-induced colitis in mice; assay: TNBS-induced colitis in mice; format: in vivo
# Experimental: Non-fasted, 10-12 week old, male BDF1 mice are dosed by oral gavage twice daily with either vehicle (5 mL/kg), reference item (Budesonide 2.5 mg/kg) or test compound (1 or 5 mg/kg) one day before (Day −1) stimulation of the inflammatory response by treatment with 2,4,6-trinitrobenzenesuiphonic acid (TNBS) (15 mg/mL in 50% ethanol/50% saline). On Day 0 of the study TNBS (200 μL) is administered intra-colonically via a plastic catheter followed by BID dosing of the vehicle, reference or test compound for 2 or 4 days. During the study animals are weighed every day and stool observations are made and recorded as a score, based on stool consistency. At the time of sacrifice on Day 2 (or Day 4) the large intestine is removed and the length and weight recorded. Sections of the colon are taken for either MPO analysis to determine neutrophil infiltration or for histopathology involving scoring to determine disease severity.
# GSK3α = GSK3α (Homo sapiens (Human), UniProt P49840); assay: GSK 3α enzyme inhibition (FRET, Z-LYTE; Method 2); format: biochemical
# GSK3α, sequence (P49840 whole entry): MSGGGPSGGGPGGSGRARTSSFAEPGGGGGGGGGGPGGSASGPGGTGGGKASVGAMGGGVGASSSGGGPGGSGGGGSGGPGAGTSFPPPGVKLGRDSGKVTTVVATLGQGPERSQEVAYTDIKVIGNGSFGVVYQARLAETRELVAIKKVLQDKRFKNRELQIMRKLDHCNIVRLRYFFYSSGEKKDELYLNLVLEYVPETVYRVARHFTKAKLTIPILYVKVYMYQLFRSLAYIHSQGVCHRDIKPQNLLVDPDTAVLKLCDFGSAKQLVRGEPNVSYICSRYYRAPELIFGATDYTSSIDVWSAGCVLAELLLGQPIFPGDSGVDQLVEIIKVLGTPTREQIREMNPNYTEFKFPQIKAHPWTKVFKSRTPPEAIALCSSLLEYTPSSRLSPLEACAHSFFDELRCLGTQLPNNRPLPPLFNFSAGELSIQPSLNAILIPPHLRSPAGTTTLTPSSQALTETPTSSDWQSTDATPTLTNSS
# Method in brief: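 GSK3-α protein preincubated with compound for 105 min, then Z-LYTE FRET peptide and ATP added for 1 h before protease development for 1 h. Phosphorylation taken from coumarin/fluorescein emission ratio; percent inhibition against uninhibited control and IC50 calculated from concentration-response curves.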
# HT29 cells = assay: IL-1β-induced IL-8 release in HT29 cells; format: cell-based; conditions: Homo sapiens, HT-29, IL-1β-stimulated HT29 cells, read-out: IC50 Values for Inhibition of Cytokine Release, HT29 cells IL-8
# Experimental: HT29 cells, a human colon adenocarcinorna cell line, are plated in a 96 well plate (24 hrs) and pre-treated with compounds at the desired concentration for 2 hours before addition of 5 ng/mL of IL-1β (Abcam) for 24 hours. Supernatants are harvested for IL-8 quantification by Sandwich ELISA (Duo-set, R&D System). The IC50 is determined from the dose response curve.
# Syk = Syk (Homo sapiens (Human), UniProt P43405); assay: Syk enzyme inhibition (FRET, Z-LYTE); format: biochemical
# Method in brief: (§1)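 Z-LYTE FRET peptide assay with enzyme preincubated with compound for 2 h at RT, then 1 h kinase reaction and 1 h protease development. ATP solutions were 800 μM for c-Src and 60 μM for Syk. Inhibition was taken from the coumarin/fluorescein emission ratio, and IC50 from concentration-response curves.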
# p38 MAPKα = p38 MAPKα (Homo sapiens (Human), UniProt Q16539); assay: p38 MAPKα enzyme inhibition (FRET, Z-LYTE; Method 2); format: biochemical
# p38 MAPKα, sequence (Q16539 whole entry): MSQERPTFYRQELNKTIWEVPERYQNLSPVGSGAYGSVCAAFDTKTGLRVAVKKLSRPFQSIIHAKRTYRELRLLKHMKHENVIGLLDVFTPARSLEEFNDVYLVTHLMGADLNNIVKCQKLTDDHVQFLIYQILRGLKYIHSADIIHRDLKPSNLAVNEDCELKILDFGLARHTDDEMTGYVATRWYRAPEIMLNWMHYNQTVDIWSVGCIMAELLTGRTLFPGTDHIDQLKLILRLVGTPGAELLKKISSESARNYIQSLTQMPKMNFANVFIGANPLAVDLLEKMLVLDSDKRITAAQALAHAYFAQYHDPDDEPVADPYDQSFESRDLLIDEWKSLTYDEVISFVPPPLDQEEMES
# Method in brief: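 p38 MAPKα (2.5 μL of 200 ng/mL stock) preincubated 2 h at RT with compound, then kinase reaction 1 h at RT with readout via MAPKAP-K2 activation using a Z-LYTE FRET peptide. Protease development 1 h; coumarin/fluorescein emission ratio gives phosphorylation. % inhibition versus uninhibited control; IC50 from concentration-response curve.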
# PBMCs [2] = assay: LPS-induced TNFα/IL-8 release in PBMC cells; format: cell-based; conditions: Homo sapiens, LPS-stimulated PBMCs, IL-8, read-out: IC50 Values for Inhibition of Cytokine Release, PBMCs IL-8
# Method in brief: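 Cytokines (TNFα, IL-8) in supernatants were quantified by sandwich ELISA after a 24 h challenge with 1 ng/mL E. coli LPS at 37° C, 5% CO2. Healthy-donor PBMCs had been exposed to compound for 2 h beforehand. IC50 values were fitted from the concentration-response curves.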
# c-Src = c-Src (Homo sapiens (Human), UniProt P12931); assay: c-Src enzyme inhibition (FRET, Z-LYTE); format: biochemical
# c-Src, sequence (P12931 whole entry, looked up): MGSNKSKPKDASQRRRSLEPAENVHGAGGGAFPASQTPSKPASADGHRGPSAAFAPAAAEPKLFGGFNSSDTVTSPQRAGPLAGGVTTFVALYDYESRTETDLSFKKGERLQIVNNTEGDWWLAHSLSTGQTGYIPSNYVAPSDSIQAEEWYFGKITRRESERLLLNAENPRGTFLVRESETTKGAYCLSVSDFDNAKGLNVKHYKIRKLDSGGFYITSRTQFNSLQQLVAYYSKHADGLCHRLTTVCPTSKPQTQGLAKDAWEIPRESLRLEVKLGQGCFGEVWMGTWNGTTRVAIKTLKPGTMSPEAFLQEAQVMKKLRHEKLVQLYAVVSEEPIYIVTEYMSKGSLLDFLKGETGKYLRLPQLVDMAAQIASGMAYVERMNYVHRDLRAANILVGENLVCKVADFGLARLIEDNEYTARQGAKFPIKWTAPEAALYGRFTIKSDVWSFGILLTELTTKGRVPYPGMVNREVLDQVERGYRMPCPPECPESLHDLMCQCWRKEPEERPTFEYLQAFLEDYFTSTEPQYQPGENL
# Method in brief: as §1
# PBMCs [3] = assay: IL-2 and IFN gamma release in CD3/CD28 stimulated PBMC cells; format: cell-based; conditions: Homo sapiens
# Method in brief: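 They were cultured with compound for 3 days. IL-2 and IFN-γ in supernatants were quantified by sandwich ELISA, and IC50 was derived from the dose-response curve.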
smiles,measurement,setting,value
"Cc1cc(Nc2nccc(Oc3ccc(NC(=O)Nc4cc(C(C)(C)C)nn4-c4cccc(CP(C)(C)=O)c4)c4ccccc34)n2)cc2cn[nH]c12 [Example 32, 1-(3-(tert-Butyl)-1-(3-((dimethylphosphoryl)methyl)phenyl)-1H-pyrazol-5-yl)-3-(4-((2-((7-methyl-1H-indazol-5-yl)amino)pyrimidin-4-yl)oxy)naphthalen-1-yl)urea]",TNBS Ulcer grade,"[1]; 5 mg/kg oral, conducted over 2 days, vehicle 3.6 ± 0.3 (exp. 1), 4.4 ± 0.2 (exp. 2)",3.3 ± 0.4
same,TNBS LP inflammation,"[1]; 5 mg/kg oral, conducted over 2 days, vehicle 3.9 ± 0.3 (exp. 1), 4.5 ± 0.2 (exp. 2)",2.7 ± 0.4
same,activity in in vivo model of colonic inflammation (histopathology analysis),[1]; conducted over 2 days,significant activity
same,inflammatory cell infiltrate in the reticular and laminar propria zone,[1]; dosed orally at 5 mg/kg,marked reduction
same,ulcer grade and epithelial repair compared to the vehicle control,[1]; dosed orally at 5 mg/kg,marked improvements
same,IC50,GSK3α,1320 nM
same,IC50,HT29 cells,1.9 nM
same,IC50,Syk,5 nM
same,IC50,p38 MAPKα,60 nM
same,IC50,PBMCs [2],1.3 nM
same,IC50,c-Src,5 nM
same,IC50,"PBMCs [3]; IFNγ, read-out: IC50 Values for Inhibition of Cytokine Release, PBMCs IFNγ",2.3 nM
same,IC50,"PBMCs [3]; IL-2, read-out: IC50 Values for Inhibition of Cytokine Release, PBMCs IL-2",4.2 nM
